Assay results: ChEMBL document CHEMBL4715899, “In-situ side-chain peptide cyclization as a breaker strategy against the amyloid aggregating peptide” (Bioorg Med Chem, 2021)
The source made the active and inactive calls. No cut-off for these calls is given here. Residues, ends and D or L forms follow the SMILES beside them. *: point of attachment. OBn = c1ccc(CO*)cc1

Legend:
[1] = Amyloidogenic property of compound in PBS buffer at pH 7.4 assessed as fibrillar assembly at 50 uM after 7 days by Congo-Red staining based birefringence anlaysis; details: time 7.0 day
[2] = Aggregation property of the compound in PBS buffer at pH 7.4 at 50 uM after 7 days by thioflavin-T fluorescence assay; type: physicochemical; details: pH 7.4, 168 h, time 7 day
[3] = organism: Homo sapiens; experiment: Inhibition of amyloid beta (1 to 40) (unknown origin) aggregation assessed as fibril formation at protein to ligand concentration ratio of 1:1 to 1:5 after 7 days by TEM analysis; details: time 7.0 day
[4] = organism: Homo sapiens; experiment: Inhibition of amyloid beta (1 to 40) (unknown origin) aggregation assessed as fibril formation at protein to ligand concentration ratio of 1:1 to 1:5 after 7 days by thioflavin-T fluorescence assay; details: time 7.0 day
[5] = organism: Homo sapiens; experiment: Disruption of preformed amyloid beta (1 to 40) (unknown origin) aggregation assessed as reduction in fibril formation at protein to ligand concentration ratio of 1:1 to 1:5 after 7 days by thioflavin-T fluorescence assay; details: time 7.0 day
[6] = organism: Homo sapiens; experiment: Disruption of preformed amyloid beta (1 to 40) (unknown origin) aggregation assessed as reduction in fibril formation at protein to ligand concentration ratio of 1:1 to 1:5 after 7 days by CD spectroscopic analysis; details: time 7.0 day
[7] = organism: Homo sapiens; experiment: Inhibition of amyloid beta (1 to 40) (unknown origin) aggregation at protein to ligand concentration ratio of 1:1 to 1:5 after 7 days by FTIR analysis; details: time 7.0 day
[8] = organism: Homo sapiens; experiment: Disruption of preformed amyloid beta (1 to 40) (unknown origin) aggregation assessed as reduction in fibril formation at protein to ligand concentration ratio of 1:1 to 1:5 after 4 to 7 days by FTIR analysis; details: time 4-7 day
[9] = organism: Homo sapiens; experiment: Inhibition of amyloid beta (1 to 40) (unknown origin) aggregation at protein to ligand concentration ratio of 1:1 to 1:5 after 7 days by CD spectroscopic analysis; details: time 7.0 day
[10] = Amyloidogenic property of compound in PBS buffer at pH 7.4 assessed as fibrillar assembly at 50 uM after 7 days by TEM anlaysis; details: time 7.0 day
[11] = organism: Homo sapiens; experiment: Inhibition of amyloid beta (1 to 40) (unknown origin) aggregation assessed as fibril formation at protein to ligand concentration ratio of 1:1 to 1:5 after 7 days by Congo-Red staining based birefringence anlaysis; details: time 7.0 day
[12] = organism: Homo sapiens; experiment: Disruption of preformed amyloid beta (1 to 40) (unknown origin) aggregation assessed as reduction in fibril formation at protein to ligand concentration ratio of 1:1 to 1:5 after 4 to 7 days by Congo-Red staining based birefringence anlaysis; details: time 4-7 day
[13] = organism: Homo sapiens; experiment: Disruption of preformed amyloid beta (1 to 40) (unknown origin) aggregation assessed as reduction in fibril formation at protein to ligand concentration ratio of 1:1 to 1:5 after 7 days by FTIR analysis; details: time 7.0 day
[14] = organism: Homo sapiens; experiment: Inhibition of amyloid beta (1 to 40) (unknown origin)-induced pore formation in large unilamellar vesicles at 10 days pretested 1:5 ratio of amyloid beta (1 to 40) to ligand concentration followed by LUV treatment and measured up to 72 hrs by carboxy-fluorescein dye assay; details: time 10.0 day
[15] = organism: Homo sapiens; experiment: Inhibition of preformed amyloid beta (1 to 40) (unknown origin)-induced pore formation in large unilamellar vesicles at 10 days pretested 1:5 ratio of amyloid beta (1 to 40) to ligand concentration followed by LUV treatment and measured up to 120 mins by carboxy-fluorescein dye assay; details: time 10.0 day
[16] = organism: Homo sapiens; experiment: Inhibition of amyloid beta (1 to 40) (unknown origin)-induced pore formation in large unilamellar vesicles at 10 days pretested 1:5 ratio of amyloid beta (1 to 40) to ligand concentration followed by LUV treatment and measured up to 120 mins by carboxy-fluorescein dye assay; details: time 10.0 day
[17] = organism: Homo sapiens; experiment: Inhibition of preformed amyloid beta (1 to 40) (unknown origin)-induced pore formation in large unilamellar vesicles at 10 days pretested 1:5 ratio of amyloid beta (1 to 40) to ligand concentration followed by LUV treatment and measured up to 172 hrs by carboxy-fluorescein dye assay; details: time 10.0 day

Row | Activity [2] | inhibition [3] | inhibition [4] | Activity [5] | Activity [6] | inhibition [7] | Activity [8] | inhibition [9] | inhibition [11] | Activity [12] | Activity [13] | inhibition [14] | inhibition [15] | inhibition [16] | inhibition [17] | SMILES | Activity [1] | Activity [10]
1 | Not Active | Active | Active | Active | Active | Active | Active | Active | Active | Active | Active |  |  |  |  | CC(=O)N[C@@H](CCCCN)C(=O)NCC(=O)N[C@@H](CCC(=O)OCc1ccccc1)C(=O)N[C@@H](Cc1ccccc1)C(=O)N[C@@H](Cc1ccccc1)C(=O)N[C@@H](C)C(N)=O (Ac-KGE(OBn)FFA-NH2) | inactive | inactive
2 | Not Active | Active | Active | Active | Active | Active | Active | Active | Active | Active | Active |  |  |  |  | CC(=O)N[C@@H](CCCCN)C(=O)N[C@@H](C)C(=O)N[C@@H](CCC(=O)OCc1ccccc1)C(=O)N[C@@H](Cc1ccccc1)C(=O)N[C@@H](Cc1ccccc1)C(=O)N[C@@H](C)C(N)=O (Ac-KAE(OBn)FFA-NH2) | inactive | inactive
3 | Not Active | Active | Active | Active | Active | Active | Active | Active | Active | Active | Active | Active | Active | Active | Active | CC(=O)N[C@@H](CCCCN)C(=O)N[C@@H](CC(C)C)C(=O)N[C@@H](CCC(=O)OCc1ccccc1)C(=O)N[C@@H](Cc1ccccc1)C(=O)N[C@@H](Cc1ccccc1)C(=O)N[C@@H](C)C(N)=O (Ac-KLE(OBn)FFA-NH2) | inactive | inactive
